According to ChEMBL document CHEMBL1201862, “PubChem BioAssay data set” (2004):
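Interpolation was linear, between the two tested concentrations surrounding the appropriate level; five concentrations were tested over 48 hours in 96-well plates. Abbreviation: GI50, concentration required for 50% inhibition of growth.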 The source made the active and inactive calls. Cut-off read from the data, not from the text of the source: active = GI50 up to about 1.1 µM and inactive = higher.

Experiments:
Assay in all cases: DTP human tumour cell line panel, 48 h
A549 = system: A549
CCRF-CEM = system: CCRF-CEM
COLO 205 = system: COLO 205
EKVX = system: EKVX
HL-60 = system: HL-60
KM12 = system: KM12
NCI-H226 = system: NCI-H226
OVCAR-4 = system: OVCAR-4
OVCAR-8 = system: OVCAR-8
RPMI-8226 = system: RPMI-8226
SF-539 = system: SF-539
SR = system: SR
TK-10 = system: TK-10
UACC-62 = system: UACC-62
UO-31 = system: UO-31
HT-29 = system: HT-29
NCI-H460 = system: NCI-H460

## CCC1CCc2c(OC)ccc(OCC(=O)O)c2C1=O (stereo unspecified)
A549
  GI50: > 100 µM (inactive)
CCRF-CEM
  GI50: > 100 µM (inactive)
COLO 205
  GI50: > 100 µM (inactive)
EKVX
  GI50: > 100 µM (inactive)
HL-60
  GI50: > 100 µM (inactive)
KM12
  GI50: > 100 µM (inactive)
NCI-H226
  GI50: > 100 µM (inactive)
OVCAR-4
  GI50: > 100 µM (inactive)
OVCAR-8
  GI50: > 100 µM (inactive)
RPMI-8226
  GI50: > 100 µM (inactive)
SF-539
  GI50: > 100 µM (inactive)
SR
  GI50: > 100 µM (inactive)
TK-10
  GI50: > 100 µM (inactive)
UACC-62
  GI50: > 100 µM (inactive)
UO-31
  GI50: > 100 µM (inactive)

## O=C(/C=C/c1c(O)ccc2ccccc12)c1ccccc1
A549
  GI50: > 100 µM (inactive)
CCRF-CEM
  GI50: 35.6 µM (inactive)
COLO 205
  GI50: > 100 µM (inactive)
EKVX
  GI50: > 100 µM (inactive)
HL-60
  GI50: 35.7 µM (inactive)
HT-29
  GI50: 15.7 µM (inactive)
KM12
  GI50: > 100 µM (inactive)
NCI-H226
  GI50: > 100 µM (inactive)
NCI-H460
  GI50: > 100 µM (inactive)
OVCAR-4
  GI50: > 100 µM (inactive)
OVCAR-8
  GI50: > 100 µM (inactive)
RPMI-8226
  GI50: 27 µM (inactive)
SF-539
  GI50: > 100 µM (inactive)
SR
  GI50: > 100 µM (inactive)
TK-10
  GI50: > 100 µM (inactive)
UACC-62
  GI50: > 100 µM (inactive)
UO-31
  GI50: > 100 µM (inactive)

## Cc1cc2cc(Cl)ccc2nc1C(=O)c1ccccc1
A549
  GI50: > 100 µM (inactive)
COLO 205
  GI50: > 100 µM (inactive)
KM12
  GI50: > 100 µM (inactive)
NCI-H226
  GI50: > 100 µM (inactive)
OVCAR-4
  GI50: > 100 µM (inactive)
OVCAR-8
  GI50: > 100 µM (inactive)
RPMI-8226
  GI50: > 100 µM (inactive)
SF-539
  GI50: > 100 µM (inactive)
SR
  GI50: > 100 µM (inactive)
TK-10
  GI50: > 100 µM (inactive)
UACC-62
  GI50: > 100 µM (inactive)
UO-31
  GI50: > 100 µM (inactive)

## COc1cc(C2C(Cl)C(=O)N2NC(=O)Cc2ccccc2)cc(Br)c1O (stereo unspecified)
A549
  GI50: > 100 µM (inactive)
CCRF-CEM
  GI50: 46.1 µM (inactive)
COLO 205
  GI50: > 100 µM (inactive)
EKVX
  GI50: 94.8 µM (inactive)
HL-60
  GI50: 48 µM (inactive)
HT-29
  GI50: > 100 µM (inactive)
KM12
  GI50: > 100 µM (inactive)
NCI-H226
  GI50: > 100 µM (inactive)
NCI-H460
  GI50: 80.9 µM (inactive)
OVCAR-4
  GI50: 63.5 µM (inactive)
OVCAR-8
  GI50: > 100 µM (inactive)
RPMI-8226
  GI50: 42.5 µM (inactive)
SR
  GI50: 56.6 µM (inactive)
TK-10
  GI50: > 100 µM (inactive)
UACC-62
  GI50: 55 µM (inactive)
UO-31
  GI50: 64.9 µM (inactive)

## O=C(O)CCC(=O)N1C/C(=C\c2ccccc2)C(=O)/C(=C/c2ccccc2)C1
A549
  GI50: 19.1 µM (inactive)
CCRF-CEM
  GI50: 1.03 µM (active)
COLO 205
  GI50: 3.47 µM (inactive)
EKVX
  GI50: 5.02 µM (inactive)
HL-60
  GI50: 2.21 µM (inactive)
HT-29
  GI50: 2.23 µM (inactive)
KM12
  GI50: 1.82 µM (inactive)
NCI-H226
  GI50: 18 µM (inactive)
NCI-H460
  GI50: 8.22 µM (inactive)
OVCAR-4
  GI50: 2.3 µM (inactive)
OVCAR-8
  GI50: 3.09 µM (inactive)
RPMI-8226
  GI50: 2.42 µM (inactive)
SF-539
  GI50: 1.82 µM (inactive)
SR
  GI50: 0.59 µM (active)
TK-10
  GI50: 9.1 µM (inactive)
UACC-62
  GI50: 1.26 µM (inactive)
UO-31
  GI50: 18.6 µM (inactive)

## Cc1cc2c(C)nn(Cc3ccccc3)c2c(C(=O)O)c1C
A549
  GI50: > 100 µM (inactive)
CCRF-CEM
  GI50: > 100 µM (inactive)
COLO 205
  GI50: > 100 µM (inactive)
EKVX
  GI50: > 100 µM (inactive)
HL-60
  GI50: > 100 µM (inactive)
NCI-H226
  GI50: > 100 µM (inactive)
OVCAR-8
  GI50: > 100 µM (inactive)
RPMI-8226
  GI50: > 100 µM (inactive)
SF-539
  GI50: > 100 µM (inactive)
SR
  GI50: > 100 µM (inactive)
TK-10
  GI50: > 100 µM (inactive)
UACC-62
  GI50: > 100 µM (inactive)
UO-31
  GI50: > 100 µM (inactive)

## COc1ccc(C2=Nc3ccccc3NC(=O)C2)cc1
A549
  GI50: 77.6 µM (inactive)
CCRF-CEM
  GI50: 41.9 µM (inactive)
COLO 205
  GI50: 38.3 µM (inactive)
EKVX
  GI50: > 100 µM (inactive)
HL-60
  GI50: 21.8 µM (inactive)
HT-29
  GI50: > 100 µM (inactive)
KM12
  GI50: > 100 µM (inactive)
NCI-H226
  GI50: > 100 µM (inactive)
NCI-H460
  GI50: 31.1 µM (inactive)
OVCAR-4
  GI50: > 100 µM (inactive)
OVCAR-8
  GI50: 40.5 µM (inactive)
SF-539
  GI50: 29.4 µM (inactive)
SR
  GI50: > 100 µM (inactive)
TK-10
  GI50: 27.9 µM (inactive)
UACC-62
  GI50: > 100 µM (inactive)
UO-31
  GI50: 34.4 µM (inactive)
